The values below come from patent publication US9351488B2, “Peracetic acid composition” (PEROXYCHEM LLC, priority 2006, dated 2016).

This assay can be described thus: Kill rate of peracetic acid 400-660 ppm with and without adjuvant. It is filed as cell-based. Conditions: peracetic acid 400-660 ppm in aqueous solution. From the text:
Use of oxidative lysing agents such as peracetic acid in aqueous solution at concentration(s) ranging from 400-660 ppm provided only moderate kill rates with log reductions of 4-5.5. However, use of peracetic acid at the same concentrations with the addition of the adjuvant herein described produced improved kill rates up to complete destruction of the species with log reductions of 6 or recovery rates of 0.

As for `CC(=O)OO` [peracetic acid], the log reductions is on record as 4-5.5 log.
